Holding throughout (type): cell-based
Test [1] has as its system SK-N-SH neuroblastoma cells. Briefly: Anti-proliferative assay (cell-titre luminescent), SK-N-SH. The conditions noted are these: Homo sapiens, 72 hours, luminescence. The method, then: (§1) The ability of compounds 2002, 2009 and 2013-2064 to inhibit the proliferation of cancer cells representative of neuroblastoma, melanoma, prostate cancer, colorectal cancer, non-small cell lung carcinoma, and triple negative breast cancer was assessed. These studies were conducted by contract research (GVK-BIO). Briefly, a pre-determined number of cells as calculated from cell growth assays for each of the cell lines employed were seeded into their respective culture medium (using ATCC culture parameters—http://www.atcc.org) and cultured for 24 h at 37° C. and 5% CO2 in 96-well culture plates. Once attached, each cell line was then exposed to various concentrations of each respective analogue (30, 10, 3, 1, 0.3 and 0.1 μM), cultured for a further 72 hours and exposed to cell-titre luminescent reagent (100 μL/well) for a further 30 minutes). Luminescence was captured using an EnVision multilabel reader and the data for each analogue concentration compared against no treatment control. Cell viability was normalized to control (vehicle alone) and dose-response curves, and half maximal effective concentration (EC50) values were determined using Graph Pad Prism 6 (nonlinear regression sigmoidal dose-response variable slope).

The subject of test [2] is SK-Mel-28 melanoma cells. Briefly: Anti-proliferative assay (cell-titre luminescent), SK-Mel-28. The conditions noted are these: Homo sapiens; SK-Mel-28, 72 hours, luminescence. On the procedure: as §1
Test [3] has as its system DU145 prostate cancer cells. Briefly: Anti-proliferative assay (cell-titre luminescent), DU145. The conditions noted are these: Homo sapiens, DU-145; DU145, 72 hours, luminescence. The method, then: as §1
Test [4] concerns PC3 prostate cancer cells. Kind of test: Anti-proliferative assay (cell-titre luminescent), PC3. Conditions: PC3, 72 hours, luminescence. On the procedure: as §1
Test [5] has as its system CaCo2 colorectal cancer cells. Briefly: Anti-proliferative assay (cell-titre luminescent), CaCo2. The conditions noted are these: Homo sapiens, Caco-2; CaCo2, 72 hours, luminescence. The method, then:
as §1

In test [6] the test system is A549 lung (NSLC) cells. Kind of test: Anti-proliferative assay (cell-titre luminescent), A549. The conditions noted are these: Homo sapiens; A549, 72 hours, luminescence. The method, then:
as §1

In test [7] the test system is MDA-MB-231 breast cancer cells. Briefly: Anti-proliferative assay (cell-titre luminescent), MDA-MB-231. The conditions noted are these: Homo sapiens; MDA-MB-231, 72 hours, luminescence. On the procedure:
as §1

A value given as a limit tells only on which side of the number the result lay.

Turning to `COc1cccc(CCN2CCN(C(=O)/C=C/c3c(C)n(CCCN4CCN(C)CC4)c4ccc(OC)cc34)CC2)c1` [Compound 2033, (E)-3-(5-methoxy-2-methyl-1-(3-(4-methylpiperazin-1-yl)propyl)-1H-indol-3-yl)-1-(4-(3-methoxyphenethyl)piperazin-1-yl)prop-2-en-1-one], the IC50 in test [1] amounted to 3.3 µM; in test [2] it was 4.2 µM; in test [3] it was 18.6 µM; in test [4] it was 6.8 µM; in test [5] it was 4.2 µM; in test [6], 10.8 µM. In test [7], this molecule returned an IC50 of 4.5 µM.
`COc1ccc2c(c1)c(C(=O)N1CCN(CCc3ccc4c(c3)OCO4)CC1)c(C)n2CCCN(C)C` [Compound 2046, (4-(2-(benzo[d][1,3]dioxol-5-yl)ethyl)piperazin-1-yl)(1-(3-(dimethylamino)propyl)-5-methoxy-2-methyl-1H-indol-3-yl)methanone]: the IC50 in test [1] amounted to 7.9 µM; in test [2], 4.4 µM; in test [3] it was 13.3 µM; in test [4], 20.3 µM; in test [5], 8 µM; in test [6] it was 14.4 µM. In test [7], this molecule came in with an IC50 of 11.3 µM.
For the molecule `CCN(CC)CCCn1c(C)c(/C=C/C(=O)N2CCN(CCc3ccc(OC)cc3)CC2)c2cc(OC)ccc21` [Compound 2024, (E)-3-(1-(3-(diethylamino)propyl)-5-methoxy-2-methyl-1H-indol-3-yl)-1-(4-(4-methoxyphenethyl)piperazin-1-yl)prop-2-en-1-one], the IC50 in test [1] was found to be 3.4 µM; in test [2] it was 3 µM; in test [3], 8.4 µM; in test [4] it was 5.7 µM; in test [5] it was 5.3 µM; in test [6], 7.7 µM. In addition, the IC50 in test [7] is 4.1 µM.
Regarding `CCN(CC)CCCn1c(C)c(C(=O)N2CCN(CCc3ccccc3)CC2)c2cc(OC)ccc21` [Compound 2055, (1-(3-(diethylamino)propyl)-5-methoxy-2-methyl-1H-indol-3-yl)(4-phenethylpiperazin-1-yl)methanone], the IC50 in test [1] is greater than 30 µM; in test [2], 1.1 µM; in test [3] it was greater than 30 µM; in test [4] it was greater than 30 µM; in test [5] it was greater than 30 µM; in test [6] it was greater than 30 µM. The IC50 in test [7] was greater than 30 µM.
For `Cc1c(C(=O)N2CCN(CCc3ccccc3)CC2)c2ccccc2n1CCCN(C)C` [Compound 2043, (1-(3-(dimethylamino)propyl)-2-methyl-1H-indol-3-yl)(4-phenethylpiperazin-1-yl)methanone], the IC50 in test [1] was 17.4 µM; in test [2] it was 17.2 µM; in test [3] it was greater than 30 µM; in test [4] it was greater than 30 µM; in test [5], greater than 30 µM; in test [6] it was greater than 30 µM. This molecule also came in with an IC50 in test [7] greater than 30 µM.
As for `CCOc1ccc2c(c1)c(/C=C/C(=O)N1CCN(CCc3ccc(F)cc3)CC1)c(C)n2CCCN(CC)CC` [Compound 2036, (E)-3-(1-(3-(diethylamino)propyl)-5-ethoxy-2-methyl-1H-indol-3-yl)-1-(4-(4-fluorophenethyl)piperazin-1-yl)prop-2-en-1-one], the half-inhibitory concentration (IC50) in test [1] is 1.5 µM; in test [2] it was 3.2 µM; in test [3], 4.7 µM; in test [4], 4.9 µM; in test [5] it was 5.1 µM; in test [6], 4.3 µM. Moreover, the 50% inhibitory concentration (IC50) in test [7] came to 4.4 µM.
Turning to `COc1ccc(CCN2CCN(C(=O)c3c(C)n(CCCN4CCN(C)CC4)c4ccc(OC)cc34)CC2)cc1` [Compound 2057, (5-methoxy-2-methyl-1-(3-(4-methylpiperazin-1-yl)propyl)-1H-indol-3-yl)(4-(4-methoxyphenethyl)piperazin-1-yl)methanone], the IC50 in test [1] was 7.2 µM; in test [2], 4.4 µM; in test [3], 30 µM; in test [4], 9 µM; in test [5], 13.3 µM; in test [6], 21.1 µM. Besides, in test [7], the IC50 is 7.5 µM.

Broadly, the IC50 is the midpoint of a concentration-inhibition curve. The low end stands for higher potency, the high end for lower potency.

Source of the values: patent US20170157135A1 (Novogen Limited, priority 2013, published 2017).
